Laboratory results: patent publication US6696404B1, “Antibacterial composition having xanthorrizol” (LG Household & Healthcare, priority 1999, dated 2004)
In brackets after ≈: the same amount, converted by molar mass.

Key:
[1] = tested on: Streptococcus mutans; assay: Minimum inhibitory concentration of active fractions; format: cell-based
Description: The crude extract, prepared in Example 1-1 was applied to a silica gel column chromatography: the crude extract was applied to a column chromatography(5×43 cm) filled with silica gel(Merck, U.S.A.) of 70 to 230 mesh, and eluted with a mixed gradient of hexane and ethylacetate (10:1→3:1→1:1). Then, thin layer chromatography(TLC) was performed with the active fractions obtained in the course of chromatographic procedure to give 8 different fractions(fractions I to VIII ) with similar retention on the TLC plate. Antibacterial activity of the fractions was measured in terms of minimum inhibitory concentration(MIC), and compared to that of vancomycin.

[2] = Antibacterial activity of acetylated single compound; format: cell-based; settings: acetylated form
Description: Since fraction II had some impurities, acetylation of the fraction was carried out to change its polarity as a procedure to obtain a single compound with antibacterial activity: 0.5 g of fraction II was dissolved in 5 ml pyridine, added with 5 ml of acetic anhydride in a drop-wise manner at ice-cold temperature, and stirred at room temperature for more than 15 hours. The reactant was subjected to partition extraction with 100 ml of ice-cold water once, and subsequently 100 ml of ethylacetate twice. The ethylacetate phase thus obtained was washed with 5% HCl, NaHCO3 and NaCl, dehydrated with anhydrous MgSO4, filtered and condensed under a reduced pressure. The resultant was finally applied onto a silica gel column(4.7×50 cm), and eluted with a solvent mixture of hexane and ethylacetate(15:1, v/v) to give an acetylated single compound. […] Then, 2 ml of 5% KOH was added to the compound, reacted with stirring for more than 2 hours, and neutralized using cation exchange resin(DOWEX50WX4-400), followed by filtration and condensation to give a single isolated compound. Thereafter, its molecular weight was measured with EI-MS(VG Platform II, FISIONS, 15 eV), and chemical identification was conducted using analytical instruments of ^1H-NMR, ^13C-NMR(400 MHz, CDCl3) and IR(Perkin Elmer spectrum I , DTGS detector). […]

[3] = tested on: Streptococcus mutans; assay: Thermal stability: well diffusion analysis after heating; format: cell-based; settings: 0.1% in DMSO heated 30 minutes
Description: Xanthorrizol was dissolved in DMSO to prepare specimens with a concentration of 0.1%. The specimens were heated for 30 minutes at the temperature of 60° C., 70° C., 80° C., 90° C., 100° C. and 121° C., respectively. Then, antibacterial activity against Streptococcus mutans was determined for each specimen by well diffusion analysis, whose results are shown in Table 13.

[4] = tested on: Actinomyces viscosus ATCC 15988; assay: MIC by 2-fold dilution; format: cell-based; settings: ATCC15988, 2×10^5 CFU/ml, 30 to 37° C., more than 24 hours
Description: (§1) In addition, minimum inhibitory concentration(MIC, μg/ml) for various microorganisms was determined by performing 2-fold dilution: first, 1 ml of medium was taken into each tube, and 1 ml of xanthorrizol(0.05% in DMSO) was added to only one tube to make 2-fold dilution. Then, serial 2-fold dilution was further carried out for the rest of the tubes, starting from the tube containing xanthorrizol. 100 μl of microorganism was added into each tube prepared by the 2-fold dilution to contain a final cell number of 2×10^5 CFU/ml, and incubated at 30 to 37° C. for more than 24 hours to determine minimum inhibitory concentrations for various test microorganisms(see: Table 12).

[5] = tested on: Streptococcus mutans ATCC 25175; assay: MIC by 2-fold dilution; format: cell-based; settings: ATCC25175, 2×10^5 CFU/ml, 30 to 37° C., more than 24 hours
Description: as §1

[6] = tested on: Candida albicans ATCC 10231; assay: MIC by 2-fold dilution; format: cell-based; settings: ATCC10231, 2×10^5 CFU/ml, 30 to 37° C., more than 24 hours
Description: as §1

[7] = tested on: Propionibacterium acnes ATCC 6919; assay: MIC by 2-fold dilution; format: cell-based; settings: Cutibacterium acnes, ATCC6919; 2×10^5 CFU/ml; 30 to 37° C., more than 24 hours
Description: as §1

[8] = tested on: Streptococcus sobrinus ATCC 27351; assay: MIC by 2-fold dilution; format: cell-based; settings: ATCC27351, 2×10^5 CFU/ml, 30 to 37° C., more than 24 hours
Description: as §1

[9] = tested on: Streptococcus salivarius ATCC 9758; assay: MIC by 2-fold dilution; format: cell-based; settings: ATCC9758, 2×10^5 CFU/ml, 30 to 37° C., more than 24 hours
Description: as §1

[10] = tested on: Candida glabrata IFO 0622; assay: MIC by 2-fold dilution; format: cell-based; settings: Nakaseomyces glabratus, IFO0622; 2×10^5 CFU/ml; 30 to 37° C., more than 24 hours
Description: as §1

[11] = tested on: Enterococcus faecalis ATCC 19433; assay: MIC by 2-fold dilution; format: cell-based; settings: ATCC19433, 2×10^5 CFU/ml, 30 to 37° C., more than 24 hours
Description: as §1

[12] = tested on: Lactobacillus casei ATCC 4646; assay: MIC by 2-fold dilution; format: cell-based; settings: Lacticaseibacillus casei, ATCC4646; 2×10^5 CFU/ml; 30 to 37° C., more than 24 hours
Description: as §1

[13] = tested on: Lactobacillus aciophilus ATCC 4356; assay: MIC by 2-fold dilution; format: cell-based; settings: ATCC4356, 2×10^5 CFU/ml, 30 to 37° C., more than 24 hours
Description: as §1

[14] = tested on: Penicilium citrinum IFO 6352; assay: MIC by 2-fold dilution; format: cell-based; settings: 2×10^5 CFU/ml; 30 to 37° C., more than 24 hours
Description: as §1

[15] = tested on: Streptococcus sanguis ATCC 35105; assay: MIC by 2-fold dilution; format: cell-based; settings: ATCC35105, 2×10^5 CFU/ml, 30 to 37° C., more than 24 hours
Description: as §1

[16] = tested on: Streptomyces bikiniensis ATCC 11062; assay: MIC by 2-fold dilution; format: cell-based; settings: ATCC11062, 2×10^5 CFU/ml, 30 to 37° C., more than 24 hours
Description: as §1

[17] = tested on: Penicilium chrysogenum IFO 5472; assay: MIC by 2-fold dilution; format: cell-based; settings: 2×10^5 CFU/ml; 30 to 37° C., more than 24 hours
Description: as §1

[18] = tested on: Pityrosporum pacchydermatis ATCC 14522; assay: MIC by 2-fold dilution; format: cell-based; settings: 2×10^5 CFU/ml; 30 to 37° C., more than 24 hours
Description: as §1

[19] = tested on: Porphyromonas gingivalis W 50; assay: MIC by 2-fold dilution; format: cell-based; settings: W50, 2×10^5 CFU/ml, 30 to 37° C., more than 24 hours
Description: as §1

[20] = tested on: Saccharomyces cerevisiae ATCC 9763; assay: MIC by 2-fold dilution; format: cell-based; settings: ATCC9763, 2×10^5 CFU/ml, 30 to 37° C., more than 24 hours
Description: as §1

[21] = tested on: Salmonella typhimurium IFO 12529; assay: MIC by 2-fold dilution; format: cell-based; settings: Salmonella enterica; 2×10^5 CFU/ml; 30 to 37° C., more than 24 hours
Description: as §1

[22] = tested on: Staphylococcus aureus ATCC 12600; assay: MIC by 2-fold dilution; format: cell-based; settings: ATCC12600, 2×10^5 CFU/ml, 30 to 37° C., more than 24 hours
Description: as §1

[23] = tested on: Cladosporium cladosporioides IFO 6348; assay: MIC by 2-fold dilution; format: cell-based; settings: IFO6348, 2×10^5 CFU/ml, 30 to 37° C., more than 24 hours
Description: as §1

[24] = tested on: Bifidobacterium bifidum ATCC 29521; assay: MIC by 2-fold dilution; format: cell-based; settings: ATCC29521, 2×10^5 CFU/ml, 30 to 37° C., more than 24 hours
Description: as §1

[25] = tested on: the pathogens; assay: Change in cell morphology (TEM) after xanthorrizol treatment; format: cell-based; settings: 10 μg/ml xanthorrizol for 30 minutes
Description: To assess the extent of xanthorrizol-mediated cell damage, 10 μg/ml xanthorrizol was treated to the pathogens for 30 minutes. […] Further, it was assumed that through the efflux of intracellular macromolecules and ions, the permeability of cell wall is increased to accelerate the efflux of intracellular components, which in turn inactivates cellular enzymes and causes the malfunction of cell wall.

[26] = tested on: Streptococcus mutans; assay: Viable cell count after xanthorrizol treatment; format: cell-based; settings: xanthorrizol 0.0004%(4 μg/ml); 37° C.
Description: Xanthorrizol was also tested for Streptococcus mutans in a similar manner as described above: xanthorrizol was dissolved in DMSO to give specimens with a concentration of 0.0002%, 0.0004% and 0.0008%, respectively. Then, the specimens were incubated with the microorganism at 37° C. for 1, 2, 5 and 10 minutes, respectively, and subjected to serial 10-fold dilution. After the incubation with the pathogen, viable cell number for Streptococcus mutans was counted. FIG. 3 is a graph showing antibacterial activity of xanthorrizol against Streptococcus mutans in terms of viable cell number, where ♦ represents DMSO, control; ▪, 0.0002% crude extract; Δ, 0.0004% crude extract; x, 0.0008% crude extract, respectively.

[27] = tested on: Streptococcus mutans; assay: Efflux of intracellular macromolecules and ions after xanthorrizol treatment; format: cell-based; settings: 5 and 10 μg/ml xanthorrizol; FIGS. 4a, 4b, 5a, 5b
Description: Streptococcus mutans was treated with 5 and 10 μg/ml of xanthorrizol for 1, 2, 5 and 10 minutes, respectively, to examine the efflux of intracellular macromolecules and ions by the xanthorrizol-mediated cell damage. FIGS. 4a and 4b are graphs showing the efflux of neucleic acid and protein from Streptococcus mutans after xanthorrizol treatment, and FIGS. 5a and 5b, calcium efflux and magnesium efflux, where ♦ represents 0.1% DMSO, control; ▪, Streptococcus mutans treated with 5 μg/ml xanthorrizol; •, Streptococcus mutans treated with 10 μg/ml xanthorrizol, respectively.

[28] = tested on: human skin; assay: Skin safety patch test; format: in vivo
[29] = tested on: Propionibacterium acnes; assay: Viable cell count after xanthorrizol treatment; format: cell-based; settings: xanthorrizol 0.002%; 37° C.
Description: To measure the antibacterial activity of xanthorrizol, it was dissolved in DMSO to give specimens with a concentration of 0.001%, 0.0015% and 0.002%, respectively, and incubated with test microorganisms([…] CFU/ml) at 37° C. for 1, 2, 5, and 10 hours, respectively. Then, they were subjected to serial 10-fold dilution, incubated with an acne-causing pathogen, Propionibacterium acnes for 24 to 48 hours, and counted the viable cell number of the pathogen. FIG. 2 is a graph showing antibacterial activity of xanthorrizol in terms of viable cell numbers, where ♦ represents DMSO, control; ▪, 0.001% crude extract; ▾, 0.0015% crude extract; x, 0.002% crude extract, respectively.

Q: For CN[C@H](CC(C)C)C(=O)N[C@H]1C(=O)N[C@@H](CC(N)=O)C(=O)N[C@H]2C(=O)N[C@H]3C(=O)N[C@H](C(=O)N[C@H](C(=O)O)c4cc(O)cc(O)c4-c4cc3ccc4O)[C@H](O)c3ccc(c(Cl)c3)Oc3cc2cc(c3O[C@@H]2O[C@H](CO)[C@@H](O)[C@H](O)[C@H]2O[C@H]2C[C@](C)(N)[C@H](O)[C@H](C)O2)Oc2ccc(cc2Cl)[C@H]1O [Vancomycin, vancomycin], which MIC [1] is on record?
A: 1 µg/mL (≈ 0.69 µM)

Q: Which antibacterial activity [2] does the source give for CC(=O)Oc1cc(C(C)CCC=C(C)C)ccc1C (stereo not shown) [acetylated single compound] here?
A: no antibacterial activity

Q: With CC(C)=CCC[C@@H](C)c1ccc(C)c(O)c1 [xanthorrizol, 1,3,5,10-bisabolatetraen-3-ol] as the compound, how does the “Diameter of Clear Zone” value ([3]; Treatment Temp. 60 ° C.) read?
A: 17 mm

Q: What about the “Diameter of Clear Zone” value ([3]; Treatment Temp. 70 ° C.) of the same compound?
A: 16 mm

Q: And the “Diameter of Clear Zone” value ([3]; Treatment Temp. 80 ° C.)?
A: 17 mm

Q: What about the “Diameter of Clear Zone” value ([3]; Treatment Temp. 90 ° C.) of the same compound?
A: 17 mm

Q: And the “Diameter of Clear Zone” value ([3]; Treatment Temp. 100 ° C.)?
A: 18 mm

Q: And the “Diameter of Clear Zone” value ([3]; Treatment Temp. 121 ° C.)?
A: 17 mm

Q: And the MIC [4]?
A: 16 µg/mL (≈ 73.3 µM)

Q: And the MIC [5]?
A: 2 µg/mL (≈ 9.16 µM)

Q: What about the MIC [6] of the same compound?
A: 125 µg/mL (≈ 573 µM)

Q: And the MIC [7]?
A: 16 µg/mL (≈ 73.3 µM)

Q: What about the MIC [8] of the same compound?
A: 4 µg/mL (≈ 18.3 µM)

Q: And the MIC [9]?
A: 4 µg/mL (≈ 18.3 µM)

Q: What about the MIC [10] of the same compound?
A: 125 µg/mL (≈ 573 µM)

Q: What about the MIC [11] of the same compound?
A: 16 µg/mL (≈ 73.3 µM)

Q: What about the MIC [12] of the same compound?
A: 250 µg/mL (≈ 1150 µM)

Q: What about the MIC [13] of the same compound?
A: 500 µg/mL (≈ 2290 µM)

Q: And the MIC [14]?
A: 250 µg/mL (≈ 1150 µM)

Q: And the MIC [15]?
A: 4 µg/mL (≈ 18.3 µM)

Q: And the MIC [16]?
A: 32 µg/mL (≈ 147 µM)

Q: What about the MIC [17] of the same compound?
A: 125 µg/mL (≈ 573 µM)

Q: What about the MIC [18] of the same compound?
A: 125 µg/mL (≈ 573 µM)

Q: And the MIC [19]?
A: 32 µg/mL (≈ 147 µM)

Q: And the MIC [20]?
A: 250 µg/mL (≈ 1150 µM)

Q: What about the MIC [21] of the same compound?
A: 62.5 µg/mL (≈ 286 µM)

Q: What about the MIC [22] of the same compound?
A: 62.5 µg/mL (≈ 286 µM)

Q: And the MIC [23]?
A: 500 µg/mL (≈ 2290 µM)

Q: What about the MIC [24] of the same compound?
A: 250 µg/mL (≈ 1150 µM)

Q: And the “cell morphology (TEM)” value [25]?
A: cell wall expansion was detected, followed by cell disruption

Q: And the “Eradication of the microorganism (viable cell number, FIG. 3)” value [26]?
A: eradicated almost completely in one minute

Q: What about the “efflux of protein, neucleic acid and ion” value [27] of the same compound?
A: increased dramatically in 5 minutes

Q: What about the “adverse effects such as erythema, scarring or edema on skin” value [28] of the same compound?
A: do not cause adverse effects

Q: And the “Eradication of the microorganism (viable cell number, FIG. 2)” value [29]?
A: eradicated almost completely in one hour
